Structures are written as SMILES.

The term Ki denotes the dissociation constant of the complex between target and ligand, obtained from inhibition or displacement.

For assay [1], the target named is KPC-2 (Klebsiella pneumoniae, UniProt Q9F663). Description: Inhibition of nitrocefin cleavage by purified KPC-2. Format: biochemical. Particulars: nitrocefin reporter substrate; 10 min preincubation at room temperature; read-out: Ki (KPC-2, NCF). As to the method:
(§1) Ki values of inhibition of purified class A, C and D enzymes were determined spectrophotometrically using nitrocefin as reporter substrate. Purified enzymes were mixed with various concentrations of inhibitors in reaction buffer and incubated for 10 min at room temperature. Nitrocefin was added and substrate cleavage profiles were recorded at 490 nm every 10 sec for 10 min. These experiments confirmed that the described compounds are inhibitors with a broad-spectrum of activity towards various β-lactamases.

Assay [2] addresses P99 (Enterobacter cloacae, UniProt P05364). The assay can be described thus: biochemical. Particulars: nitrocefin reporter substrate; 10 min preincubation at room temperature; read-out: Ki (P99, NCF). How it is done:
(§2) Ki values of inhibition of purified class A, C and D enzymes were determined spectrophotometrically using nitrocefin as reporter substrate. Purified enzymes were mixed with various concentrations of inhibitors in reaction buffer and incubated for 10 min at room temperature. Nitrocefin was added and substrate cleavage profiles were recorded at 490 nm every 10 sec for 10 min.

In assay [3] the target is Pa-AmpC (Pseudomonas aeruginosa, UniProt P24735). The assay can be described thus: biochemical. Particulars: nitrocefin reporter substrate; 10 min preincubation at room temperature; read-out: Ki (Pa-AmpC, NCF). How it is done: as §2
Sequence of Pa-AmpC (P24735 27-397): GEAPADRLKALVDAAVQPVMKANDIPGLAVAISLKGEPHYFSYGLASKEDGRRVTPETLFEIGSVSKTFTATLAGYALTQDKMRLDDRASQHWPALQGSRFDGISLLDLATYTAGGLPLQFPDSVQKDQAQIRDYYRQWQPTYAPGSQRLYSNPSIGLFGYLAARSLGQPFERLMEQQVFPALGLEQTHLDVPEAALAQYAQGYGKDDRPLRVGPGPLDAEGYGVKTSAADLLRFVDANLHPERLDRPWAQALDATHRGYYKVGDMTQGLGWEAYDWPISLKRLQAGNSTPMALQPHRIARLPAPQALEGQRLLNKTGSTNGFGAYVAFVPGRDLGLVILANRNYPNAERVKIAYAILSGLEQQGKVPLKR
Assay [4] has as its target OXA-48 (Klebsiella pneumoniae, UniProt Q6XEC0). The assay can be described thus: Inhibition of nitrocefin cleavage by purified OXA-48. The assay is classed as biochemical. Particulars: nitrocefin reporter substrate; 10 min preincubation at room temperature; read-out: Ki (OXA-48, NCF). As to the method:
as §1

Assay [5] deals with OXA-23 (Acinetobacter baumannii, UniProt Q9L4P2). The assay can be described thus: Inhibition of nitrocefin cleavage by purified OXA-23. The assay is classed as biochemical. Particulars: nitrocefin reporter substrate; 10 min preincubation at room temperature; read-out: Ki (OXA-23, NCF). As to the method: as §1
Sequence of OXA-23 (Q9L4P2 18-273): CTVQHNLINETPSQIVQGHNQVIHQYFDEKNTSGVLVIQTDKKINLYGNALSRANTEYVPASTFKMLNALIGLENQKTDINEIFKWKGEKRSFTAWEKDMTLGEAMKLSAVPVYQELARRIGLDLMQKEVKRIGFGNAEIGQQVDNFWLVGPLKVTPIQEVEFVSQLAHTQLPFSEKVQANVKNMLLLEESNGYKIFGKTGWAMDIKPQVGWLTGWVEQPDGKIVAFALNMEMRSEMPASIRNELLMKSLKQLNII
For assay [6], the target named is VIM-1 (Pseudomonas aeruginosa, UniProt A0A0F7KYQ8). Description: Inhibition of nitrocefin cleavage by purified VIM-1. Particulars: nitrocefin reporter substrate; 10 min preincubation at room temperature; read-out: Ki (VIM-1, NCF). Format: biochemical.
Assay [7] has as its target NDM-1 (Klebsiella pneumoniae, UniProt C7C422). Description: Inhibition of imipenem cleavage by purified NDM-1. The assay is classed as biochemical. Particulars: imipenem reporter substrate; 37° C.; read-out: Ki (NDM-1, IMI). How it is done: Purified enzymes were mixed with various concentrations of inhibitors in reaction buffer and incubated for 10 min at room temperature. Imipenem was added and substrate cleavage profiles were recorded at 294 nm every 30 seconds for 30 minutes at 37° C.

In assay [8] the target is IMP-1 (Serratia marcescens, UniProt P52699). The assay can be described thus: Inhibition of imipenem cleavage by purified IMP-1. Format: biochemical. Particulars: imipenem reporter substrate; 37° C.; read-out: Ki (IMP-1, IMI). As to the method:
Ki values of inhibition of purified class B enzymes NDM-1 and IMP-1 were determined spectrophotometrically using imipenem as reporter substrate. Purified enzymes were mixed with various concentrations of inhibitors in reaction buffer and incubated for 10 min at room temperature. Imipenem was added and substrate cleavage profiles were recorded at 294 nm every 30 seconds for 30 minutes at 37° C. These experiments further confirmed that the described compounds have the ability to inhibit carbapenemase activity of metallo-beta-lactamases.

Assay [9] relates to PAM1032/KPC-2 (overexpressed MexAB-OprM). Description: Biapenem potentiation (MPC64) in PAM1032/KPC-2. Particulars: BLI potency to decrease biapenem MIC 64-fold, from 32 to 0.5 μg/ml; efflux proficient strain. Further details: PAM1032/KPC-2 Biapenem MPC64: unit not given here. Format: cell-based, Pseudomonas aeruginosa. As to the method: (§3) Efflux of BLIs from Pseudomonas aeruginosa by the MexAB-OprM efflux pump was also evaluated. The plasmid expressing the gene encoding KPC-2 was introduced into two strains of P. aeruginosa, PAM1032 and PAM1154 that overexpressed or lacked MexAB-OprM, respectively. Due to expression of KPC-2 both strains became resistant to biapenem. […] Potency of BLIs to potentiate biapenem in these strains was determined. […] The ratio of MPC64 values for each BLI in PAM1032/KPC-2 (efflux proficient) and PAM1154/KPC-2 (efflux deficient) was determined to generate the Efflux Index (EI) as shown in Table 8.

In assay [10] the test system is PAM1154/KPC-2 (lacked MexAB-OprM). The assay can be described thus: Biapenem potentiation (MPC64) in PAM1154/KPC-2. Particulars: BLI potency to decrease biapenem MIC 64-fold, from 32 to 0.5 μg/ml; efflux deficient strain. The assay is classed as cell-based, Pseudomonas aeruginosa. Further details: PAM1154/KPC-2 Biapenem MPC64: unit not given here. How it is done: as §3

For assay [11], the target named is CTX-M-14 (Escherichia coli, UniProt Q9L5C7). Description: Inhibition of nitrocefin cleavage by purified CTX-M-14. Format: biochemical. Particulars: nitrocefin reporter substrate; 10 min preincubation at room temperature; read-out: Ki (CTX-M-14, NCF). How it is done:
as §2

Sequence of OXA-48 (Q6XEC0 23-265, looked up): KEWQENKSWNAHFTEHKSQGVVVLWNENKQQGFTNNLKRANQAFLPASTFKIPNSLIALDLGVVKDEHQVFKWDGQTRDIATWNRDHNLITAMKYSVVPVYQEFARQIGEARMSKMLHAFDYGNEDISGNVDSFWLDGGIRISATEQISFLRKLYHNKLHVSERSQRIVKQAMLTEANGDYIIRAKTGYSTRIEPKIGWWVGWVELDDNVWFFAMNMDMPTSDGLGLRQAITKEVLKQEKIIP
Sequence of CTX-M-14 (Q9L5C7 29-291, species assumed): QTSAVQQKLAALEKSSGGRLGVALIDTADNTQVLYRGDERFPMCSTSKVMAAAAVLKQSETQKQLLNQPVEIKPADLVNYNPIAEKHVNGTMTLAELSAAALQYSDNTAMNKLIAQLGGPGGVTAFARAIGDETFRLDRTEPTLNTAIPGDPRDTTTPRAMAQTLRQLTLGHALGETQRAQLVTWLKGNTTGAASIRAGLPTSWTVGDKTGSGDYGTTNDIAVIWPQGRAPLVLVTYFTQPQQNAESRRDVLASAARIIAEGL
Sequence of IMP-1 (P52699 19-246, looked up, species assumed): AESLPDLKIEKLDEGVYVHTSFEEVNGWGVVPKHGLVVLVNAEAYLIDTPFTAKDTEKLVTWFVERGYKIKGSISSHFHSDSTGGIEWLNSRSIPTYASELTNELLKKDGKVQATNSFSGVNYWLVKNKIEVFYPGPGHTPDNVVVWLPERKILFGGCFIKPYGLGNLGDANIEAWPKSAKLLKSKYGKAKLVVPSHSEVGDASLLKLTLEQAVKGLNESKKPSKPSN
Sequence of NDM-1 (C7C422 29-270, looked up, species assumed): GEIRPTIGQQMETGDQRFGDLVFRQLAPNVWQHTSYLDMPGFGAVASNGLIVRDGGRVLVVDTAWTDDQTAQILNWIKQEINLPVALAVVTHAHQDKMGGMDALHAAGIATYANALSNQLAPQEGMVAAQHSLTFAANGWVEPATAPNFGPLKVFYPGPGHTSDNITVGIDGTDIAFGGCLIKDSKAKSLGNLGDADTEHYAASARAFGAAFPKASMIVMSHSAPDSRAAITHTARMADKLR
Sequence of KPC-2 (Q9F663 25-293 limits assumed): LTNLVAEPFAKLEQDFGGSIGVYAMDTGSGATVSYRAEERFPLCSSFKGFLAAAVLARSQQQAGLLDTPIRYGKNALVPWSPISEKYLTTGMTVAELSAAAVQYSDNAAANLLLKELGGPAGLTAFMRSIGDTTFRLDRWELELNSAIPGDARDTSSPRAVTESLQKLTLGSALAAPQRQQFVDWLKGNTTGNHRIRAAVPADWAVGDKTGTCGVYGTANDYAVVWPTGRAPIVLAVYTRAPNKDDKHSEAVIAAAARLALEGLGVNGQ
Sequence of P99 (P05364 21-381): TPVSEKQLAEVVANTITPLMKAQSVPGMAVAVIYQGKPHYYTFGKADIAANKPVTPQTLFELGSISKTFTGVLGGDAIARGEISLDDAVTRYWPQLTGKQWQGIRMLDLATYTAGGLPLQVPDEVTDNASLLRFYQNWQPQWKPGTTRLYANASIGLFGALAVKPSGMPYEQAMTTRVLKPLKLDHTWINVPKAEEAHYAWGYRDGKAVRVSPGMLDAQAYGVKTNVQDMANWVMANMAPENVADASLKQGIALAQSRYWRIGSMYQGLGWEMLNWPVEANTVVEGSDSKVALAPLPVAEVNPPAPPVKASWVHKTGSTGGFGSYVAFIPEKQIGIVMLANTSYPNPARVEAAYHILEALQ

Regarding `COc1ccc2c(c1C(=O)O)OB(O)C=C2` [Compound 9, 2-Hydroxy-7-methoxy-1,2-benzoxaborinine-8-carboxylic acid], the Ki in assay [1] was under 0.1 µM; in [2] it was under 0.1 µM; in assay [3] it was 0.1 to 1 µM; in assay [4], under 0.1 µM; in assay [5] it was under 0.1 µM; in assay [6] it was over 1 µM. Besides, the Ki in assay [7] and in [8] was over 1 µM throughout. Also, the “PAM1032/KPC-2 Biapenem MPC64” value in assay [9] was over 10. Further, the “PAM1154/KPC-2 Biapenem MPC64” value in [10] stood at 1.25.
Turning to `COc1ccc2c(c1C(=O)O)OB(O)[C@@H]1COC[C@H]21` [Compound 23, (3aS,9bS)-4,4-dihydroxy-7-methoxy-1,3,3a,9b-tetrahydrofuro[3,4-c][1,2]benzoxaborinine-6-carboxylic acid], the Ki is under 0.1 µM in assay [11]; under 0.1 µM in assay [1]; under 0.1 µM in [2]; 0.1 to 1 µM in assay [3]; under 0.1 µM in assay [4]; under 0.1 µM in assay [5]. For the same compound, the results for the Ki in assay [6], in assay [7] and in assay [8] were 0.1 to 1 µM, under 0.1 µM and over 1 µM, respectively. Also, in assay [9], the “PAM1032/KPC-2 Biapenem MPC64” value is given as 20. Moreover, the “PAM1154/KPC-2 Biapenem MPC64” value in assay [10] stood at 20.
Take `COc1ccc2c(c1C(=O)O)OB(O)[C@H]1C[C@@H]21` [Compound 2, (1aS,7bR)-2-hydroxy-5-methoxy-1a,7b-dihydro-1H-cyclopropa[c][1,2]benzoxaborinine-4-carboxylic acid]: the Ki in [11], in assay [1], in assay [2], in assay [3], in assay [4] and in [5] was under 0.1 µM in each case. Besides, the Ki in assay [6] is 0.1 to 1 µM; in [7], 0.1 to 1 µM; in assay [8], over 1 µM. In [9], the “PAM1032/KPC-2 Biapenem MPC64” value is listed as 2.5. For the same compound, the “PAM1154/KPC-2 Biapenem MPC64” value in [10] was found to be 1.25.
Regarding `O=C(O)c1c(OCCF)ccc2c1OB(O)C1CC21` (stereo not drawn) [Compound 17, 5-(2-fluoroethoxy)-2,2-dihydroxy-1a,7b-dihydro-1H-cyclopropa[c][1,2]benzoxaborinine-4-carboxylic acid], the Ki in assay [11], in assay [1], in [2], in assay [3], in assay [4] and in assay [5] was under 0.1 µM each time. The Ki in [6], in [7] and in assay [8] was under 0.1 µM throughout. Further, in assay [9], the “PAM1032/KPC-2 Biapenem MPC64” value is given as 20. The “PAM1154/KPC-2 Biapenem MPC64” value in assay [10] was found to be 5.
`O=C(O)c1c(F)ccc2c1OB(O)CC21CC1` [Compound 15, 8-fluoro-4,4-dihydroxy-spiro[5-oxa-4-boranuidabicyclo[4.4.0]deca-1(6),7,9-triene-2,1′-cyclopropane]-7-carboxylic acid]: the Ki in assay [11], in [1], in assay [2], in assay [3], in assay [4] and in assay [5] was under 0.1 µM throughout. In addition, the results for the Ki in assay [6], in assay [7] and in [8] were over 1 µM, 0.1 to 1 µM and over 1 µM, respectively. Further, the “PAM1032/KPC-2 Biapenem MPC64” value in assay [9] is on record as 5. Further, the “PAM1154/KPC-2 Biapenem MPC64” value in [10] came to 1.25.
Regarding `O=C(O)c1c(F)c(F)cc2c1OB(O)C1CC21` (stereo not drawn) [Compound 19, 5,6-difluoro-2,2-dihydroxy-1a,7b-dihydro-1H-cyclopropa[c][1,2]benzoxaborinine-4-carboxylic acid], the Ki in [11], in assay [1], in assay [2], in [3], in [4] and in assay [5] was under 0.1 µM each time. The Ki is under 0.1 µM in [6], 0.1 to 1 µM in assay [7] and over 1 µM in [8]. Further, the “PAM1032/KPC-2 Biapenem MPC64” value in [9] amounted to 5. Besides, the “PAM1154/KPC-2 Biapenem MPC64” value in [10] was 1.25.
On to `O=C(O)c1cccc2c1OB(O)CC21CC1` [Compound 14, 4,4-dihydroxyspiro[5-oxa-4-boranuidabicyclo[4.4.0]deca-1(6),7,9-triene-2,1′-cyclopropane]-7-carboxylic acid], for which the Ki in assay [11], in assay [1], in assay [2], in assay [3], in assay [4] and in assay [5] was under 0.1 µM in each case. The Ki in assay [6] is over 1 µM; in [7] it was under 0.1 µM; in assay [8] it was over 1 µM. Besides, the “PAM1032/KPC-2 Biapenem MPC64” value in assay [9] worked out at 40. The “PAM1154/KPC-2 Biapenem MPC64” value in [10] is given as 1.25.
For `COc1ccc2c(c1C(=O)O)OB(O)C1C2C1(F)F` (stereo not drawn) [Compound 5, 1,1-Difluoro-2-hydroxy-5-methoxy-1a,7b-dihydrocyclopropa[c][1,2]benzoxaborinine-4-carboxylic acid], the Ki in assay [11] is under 0.1 µM; in assay [1], under 0.1 µM; in [2], 0.1 to 1 µM; in [3], over 1 µM; in assay [4], under 0.1 µM; in [5] it was under 0.1 µM. The Ki in [6] is over 1 µM; in assay [7] it was 0.1 to 1 µM; in assay [8], over 1 µM. Besides, the “PAM1032/KPC-2 Biapenem MPC64” value in [9] amounted to 20. Further, in assay [10], the “PAM1154/KPC-2 Biapenem MPC64” value came out at 10.
With `COc1ccc2c(c1C(=O)O)OB(O)C1(CO)CC21` (stereo not drawn) [Compound 22, 2,2-dihydroxy-1a-(hydroxymethyl)-5-methoxy-1,7b-dihydrocyclopropa[c][1,2]benzoxaborinine-4-carboxylic acid], the Ki was under 0.1 µM in assay [11]; under 0.1 µM in assay [1]; under 0.1 µM in assay [2]; under 0.1 µM in assay [3]; under 0.1 µM in assay [4]; over 1 µM in [5]. For the same compound, the Ki in [6], in assay [7] and in [8] was under 0.1 µM each time. In addition, in assay [9], the “PAM1032/KPC-2 Biapenem MPC64” value is 20. Further, the “PAM1154/KPC-2 Biapenem MPC64” value in assay [10] was determined as 10.
With `COc1ccc2c(c1C(=O)O)OB(O)C1CC21` (stereo not drawn) [Compound 1, 2-Hydroxy-5-methoxy-1a,7b-dihydro-1H-cyclopropa[c][1,2]benzoxaborinine-4-carboxylic acid], the Ki in assay [11], in assay [1], in assay [2], in assay [3], in [4] and in assay [5] was under 0.1 µM throughout. Besides, the inhibition constant Ki in assay [6], in [7] and in assay [8] was under 0.1 µM throughout. The “PAM1032/KPC-2 Biapenem MPC64” value in assay [9] is 2.5. Also, the “PAM1154/KPC-2 Biapenem MPC64” value in assay [10] came to 1.25.
In the case of `O=C(O)c1cccc2c1OB(O)[C@@H]1C[C@H]21` [Compound 16, (1aR,7bS)-2,2-dihydroxy-1a,7b-dihydro-1H-cyclopropa[c][1,2]benzoxaborinine-4-carboxylic acid], the Ki in assay [11], in [1], in assay [2], in [3], in assay [4] and in [5] was under 0.1 µM each time. For the same compound, the Ki in [6], in assay [7] and in assay [8] was under 0.1 µM each time. For the same compound, the “PAM1032/KPC-2 Biapenem MPC64” value in [9] was 1.25. Moreover, the “PAM1154/KPC-2 Biapenem MPC64” value in assay [10] is on record as 0.3.
